Measurements as given in patent US10822367B2, “Pharmaceutical composition for preventing or treating dementia and improving cognitive function, comprising glasswort extract” (priority 2017, dated 2020).
pIC50: −log10 of the molar value. ≈ marks a conversion by molar mass, not a printed value.

Legend:
[1] = molecular target: acetylcholine esterase (AChE) (Homo sapiens, UniProt P22303); experiment: Acetylcholine esterase inhibitory activity (partially corrected Ellman's coupled enzyme assay); assay type: biochemical
Text: It has been reported that as the concentration of acetylcholine esterase (AChE) increases in the cerebral blood vessels, cholinergic neurotransmitters for neurons are deficient in neurons, causing memory and cognitive impairment. Therefore, the measurement of AChE inhibitory activity can be used as a tool for the development of a drug or health functional raw material for prevention and treatment of dementia or enhancement of cognitive ability. In the present invention, the AChE inhibitory activity of a desalted Salicornia europaea extract, a desalted Salicornia europaea enzymatic hydrolysis extract, or purified fractions obtained from a desalted Salicornia europaea extract were measured, and the measurement was conducted by partially correcting Ellman's coupled enzyme assay. That is, 170 μL of 100 mM phosphate buffer (pH 8), […] of 2 mM dithiobisnitrobenzoic acid (DTNB), and 20 μL of an extraction sample were added to on a 96-well microplate. […] The enzymatic reaction solution was incubated at 37° C. for 10 minutes, and then the absorbance was measured by a UV-VIS microreader at 410 nm. The AChE inhibitory activity was calculated as below by comparison between the absorbance (Ac) of a control group not containing a substrate and a sample and the absorbance (As) of a test group. *AChE inhibitory activity (%)=[1−(As/Ac)]×100 • Ac: absorbance of a control group, • As: absorbance of a sample group.

[2] = tested on: forgetfulness animal models using scopolamine; experiment: Y-maze test; assay type: in vivo
Procedure: A test was conducted to investigate the improvement efficacy of cognitive ability and memory of the desalted Salicornia europaea extract (PM-EE) obtained in example 4-1 above and acanthoside B as an AChE inhibitory and neuroinflammation inhibiting substance isolated from PM-EE in examples 4-2 and 4-3. The Y-maze test was conducted in forgetfulness animal models using scopolamine. In the present test, PM-EE and acanthoside B were dissolved in 10% Tween 80, and then the mixture was orally administered at different concentrations (PM-EE and acanthoside B). […] For the Y-maze test, a test animal was carefully placed in a test apparatus composed of three arms (A, B, C) of a black polyvinyl plastic, each of the arms being 50 cm in length, 10 cm in width, and 20 cm in height, and the folding angle of the three arms being 120 degrees, and the test animal was allowed to freely move for 8 minutes, and then the number of arm entries was recorded. If the test animal sequentially entered the three different arms, 1 point (actual alternation) was given. The alternation behavior was calculated by the following formula. Alternation behavior=(actual alternation)/(maximum alternation)×100 (maximum alternation: the total number of arm entries−2)

[3] = Solubility (physical and chemical properties); assay type: physicochemical
Text: As a result of the measurement above, the compound S7-L3-3 was identified to be acanthoside B ((2S,3R,4S,5S,6R)-2-[4-[(3S,3aR,6S,6aR)-3-(4-hydroxy-3,5-dimethoxyphenyl)-1,3,3a,4,6,6a-hexahydrofuro [3,4-c]furan-6-yl]-2,6-dimethoxyphenoxy]-6-(hydroxymethyl)oxane-3,4,5-triol) having a molecular weight of 580, which has not been reported in Salicornia europaea until now, and the physical and chemical properties thereof are as follows.

[4] = tested on: forgetfulness animal models using scopolamine; experiment: Passive avoidance test; assay type: in vivo, mice
Procedure: Mice were placed in the bright section with shining light and allowed to go over for 20 seconds. Subsequently, the guillotine door was opened and the mouse was allowed to enter into the dark section. […] The time from when the guillotine door was opened to when the mouse entered the dark section was measured. Once the mouse entered the dark section, the guillotine door was closed, and an electric shock of 0.25 mA flows through a grid bottom for 3 seconds, and the mouse remembered this electrical action. The present test was conducted 24 hours after the learning test. […] Here, the longer the time taken, the better the cognitive ability and memory in passive avoidance.

[5] = tested on: iNOS and COX-2 protein in LPS-stimulated BV2 microglia; experiment: Neuroinflammation factor protein expression by western blotting; assay type: cell-based, mouse; conditions: acanthoside B; LPS-induced (FIG. 10c)
Procedure: (§1) A test was conducted to investigate effects of the neuroinflammation inducing substance LPS (200 mg/mL) and the active ingredient acanthoside B of PM-EE on brain glia cells in LPS-stimulated brain glia cells BV2 microglia. The cells were treated with each material at different concentrations (1, 5, 10 μg/mL), and a cytotoxicity test was conducted through MTT analysis. […] Therefore, in order to analyze the neuroinflammation inhibitory ability of acanthoside B at concentrations (1, 5, 100 μg/mL) without cytotoxicity, as for whether the nitric oxide (NO) produced in LPS (200 ng/ml)-stimulated mouse BV-2 microglia was inhibited by acanthoside B, the content of intracellular LPS-induced nitric oxide (NO) was measured through NO assay using Griess reagent.

[6] = tested on: neuroinflammation-related genes (IL-1β, iNOS, COX-2, and TNF-α) in BV2 microglia; experiment: Neuroinflammation gene expression by RT-PCR; assay type: cell-based, mouse
Procedure: BV2 microglia as neuroglia were treated with LPS and the desalted Salicornia europaea extract (PM-EE) at different concentrations (0-100 μg/mL). After 1 hour, cells were stimulated by LPS, and after 3 hours, an RNA sample was isolated by an RNA extraction buffer. Thereafter, RT-PCR assay was conducted through RNA purification procedure. […] RNA isolated from BV2 microglia was subjected to denaturation at 95° C. for […], 45 times of chain reactions in conditions of 95° C. for 5 seconds and 60° C. for 20 seconds, and annealing to 95° C. at 0.2° C./15 sec, using the primers in Table 4, and then the reaction was stopped. Last, separation by bp size was conducted through agarose gel electrophoresis. Then, bands were checked under UV, and fluorescence was imaged by a camera. As shown in the results in FIG. 9, the expressions of neuroinflammation-related genes (IL-1β, iNOS, COX-2, and TNF-α) were not or slightly observed in a control group treated without LPS.
A test was conducted to investigate an effect of acanthoside B on neuroinflammation factor gene expression. […] After 3 hours, RNA sample was separated by RNA extraction buffer to synthesize cDNA, and RT-PCR was conducted by the same method as in example 6 using the primers in Table 4. […]

BV2 microglia = experiment: Cytotoxicity test through MTT assay in LPS-stimulated BV2 microglia; conditions: acanthoside B 1, 5, 10 μg/mL, alone or together with LPS (FIG. 10a)
Procedure: as §1

[7] = tested on: LPS-stimulated mouse BV-2 microglia; experiment: LPS-induced nitric oxide (NO) production, NO assay using Griess reagent; assay type: cell-based; conditions: 1, 5, 100 μg/mL as printed; LPS 200 ng/ml (FIG. 10b)
Procedure: as §1

acetylcholine esterase (AChE), sequence (P22303 32-614): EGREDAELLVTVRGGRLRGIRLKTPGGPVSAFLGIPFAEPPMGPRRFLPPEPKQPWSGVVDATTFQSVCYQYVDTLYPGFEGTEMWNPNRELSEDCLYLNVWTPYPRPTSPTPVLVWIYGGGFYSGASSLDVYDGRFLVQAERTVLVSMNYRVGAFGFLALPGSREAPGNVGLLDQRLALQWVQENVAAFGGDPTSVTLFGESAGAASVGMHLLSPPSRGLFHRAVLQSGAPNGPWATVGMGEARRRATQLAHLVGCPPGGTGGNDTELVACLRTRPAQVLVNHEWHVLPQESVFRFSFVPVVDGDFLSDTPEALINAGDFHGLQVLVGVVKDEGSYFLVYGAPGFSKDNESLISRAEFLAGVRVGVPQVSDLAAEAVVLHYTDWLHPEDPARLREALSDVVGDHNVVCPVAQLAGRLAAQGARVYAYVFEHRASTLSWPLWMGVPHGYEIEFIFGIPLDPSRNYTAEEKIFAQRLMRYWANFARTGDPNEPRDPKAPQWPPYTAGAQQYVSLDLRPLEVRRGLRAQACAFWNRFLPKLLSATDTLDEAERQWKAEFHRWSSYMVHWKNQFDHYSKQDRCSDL

## COc1cc([C@H]2OC[C@@H]3[C@@H]2CO[C@H]3c2cc(OC)c(O[C@@H]3O[C@H](CO)[C@@H](O)[C@H](O)[C@H]3O)c(OC)c2)cc(OC)c1O[C@@H]1O[C@H](CO)[C@@H](O)[C@H](O)[C@H]1O [Elutheroside E, eleutheroside E, reference compound]
[1]
  IC50 (AChE inhibitory activity): 8.2 ± 0.37 µg/mL (≈ 11 µM)

## CN1[C@@H]2C[C@@H](OC(=O)[C@H](CO)c3ccccc3)C[C@H]1[C@@H]1O[C@@H]12 [scopolamine, reference compound]
[2]; normal control group scored 50 points
  Alternation behavior after administration of scopolamine: 45.5 points

## COc1cc([C@H]2OC[C@H]3[C@@H]2CO[C@@H]3c2cc(OC)c(O[C@@H]3O[C@H](CO)[C@@H](O)[C@H](O)[C@H]3O)c(OC)c2)cc(OC)c1O [acanthoside B, (2S,3R,4S,5S,6R)-2-[4-[(3S,3aR,6S,6aR)-3-(4-hydroxy-3,5-dimethoxyphenyl)-1,3,3a,4,6,6a-hexahydrofuro [3,4-c]furan-6-yl]-2,6-dimethoxyphenoxy]-6-(hydroxymethyl)oxane-3,4,5-triol]
[3]
  Solubility: soluble in methanol, ethanol, ethyl acetate, ethyl acetate, chloroform, or pyridine
[4]; administration at high concentrations
  Cognitive ability and memory improvement compared with galantamine (passive avoidance): more superior cognitive ability and memory improvement effects compared with the dementia drug, galantamine
[4]; scopolamine 1 mg/kg intraperitoneally, different concentrations of sample (FIG. 12a, 12b)
  Transfer latency time (TLT: retention time): significantly increased
[5]
  Expressions of iNOS and COX-2 protein (western blotting): remarkably inhibited
[6]; 10 μg/mL (FIG. 11)
  LPS-induced amplified neuroinflammation-related genes (IL-1β, iNOS, COX-2, TNF-α) at high concentration: restored to almost the same level as that of a control group before LPS induction
[6]; 1, 5, 10 μg/mL, LPS-stimulated (FIG. 11)
  mRNA expression pattern of IL-1β, iNOS, COX-2, and TNF-α (RT-PCR): reduced dose-dependently
[2]; galantamine 10 mg/kg as positive control
  Cognitive ability and memory improvement compared with galantamine (Y-maze): superior cognitive ability and memory improvement effects to galantamine
[2]; orally administered at different concentrations in 10% Tween 80, scopolamine model (FIG. 13a, 13b)
  Alternation behavior (spatial cognitive ability): restored dose-dependently
BV2 microglia
  Cell viability (MTT): not significantly changed
[1]; IC50 (AChE inhibitory activity)
  pIC50: 5.32
[1]; read-out: AChE inhibitory activity
  inhibition at 10 µg/mL: 93.2%
[7]
  LPS-induced amplified intracellular nitric oxide (NO): remarkably decreased dependently on the treatment concentration
